{"source": "paper PMC10983004", "about": "(Journal of Medicinal Chemistry, 2024)", "key": {"PHD1, PHD2, PHD3": {"test_system": "PHD1, PHD2, PHD3", "settings": "RCC4/VHLHA, Hep3B, MCF7; western blot; ref SI 4; cited from earlier work"}, "KDM6A [1]": {"biological_target": "T1, KDM6A (Homo sapiens, UniProt O15550)", "T1 sequence (O15550 whole entry)": "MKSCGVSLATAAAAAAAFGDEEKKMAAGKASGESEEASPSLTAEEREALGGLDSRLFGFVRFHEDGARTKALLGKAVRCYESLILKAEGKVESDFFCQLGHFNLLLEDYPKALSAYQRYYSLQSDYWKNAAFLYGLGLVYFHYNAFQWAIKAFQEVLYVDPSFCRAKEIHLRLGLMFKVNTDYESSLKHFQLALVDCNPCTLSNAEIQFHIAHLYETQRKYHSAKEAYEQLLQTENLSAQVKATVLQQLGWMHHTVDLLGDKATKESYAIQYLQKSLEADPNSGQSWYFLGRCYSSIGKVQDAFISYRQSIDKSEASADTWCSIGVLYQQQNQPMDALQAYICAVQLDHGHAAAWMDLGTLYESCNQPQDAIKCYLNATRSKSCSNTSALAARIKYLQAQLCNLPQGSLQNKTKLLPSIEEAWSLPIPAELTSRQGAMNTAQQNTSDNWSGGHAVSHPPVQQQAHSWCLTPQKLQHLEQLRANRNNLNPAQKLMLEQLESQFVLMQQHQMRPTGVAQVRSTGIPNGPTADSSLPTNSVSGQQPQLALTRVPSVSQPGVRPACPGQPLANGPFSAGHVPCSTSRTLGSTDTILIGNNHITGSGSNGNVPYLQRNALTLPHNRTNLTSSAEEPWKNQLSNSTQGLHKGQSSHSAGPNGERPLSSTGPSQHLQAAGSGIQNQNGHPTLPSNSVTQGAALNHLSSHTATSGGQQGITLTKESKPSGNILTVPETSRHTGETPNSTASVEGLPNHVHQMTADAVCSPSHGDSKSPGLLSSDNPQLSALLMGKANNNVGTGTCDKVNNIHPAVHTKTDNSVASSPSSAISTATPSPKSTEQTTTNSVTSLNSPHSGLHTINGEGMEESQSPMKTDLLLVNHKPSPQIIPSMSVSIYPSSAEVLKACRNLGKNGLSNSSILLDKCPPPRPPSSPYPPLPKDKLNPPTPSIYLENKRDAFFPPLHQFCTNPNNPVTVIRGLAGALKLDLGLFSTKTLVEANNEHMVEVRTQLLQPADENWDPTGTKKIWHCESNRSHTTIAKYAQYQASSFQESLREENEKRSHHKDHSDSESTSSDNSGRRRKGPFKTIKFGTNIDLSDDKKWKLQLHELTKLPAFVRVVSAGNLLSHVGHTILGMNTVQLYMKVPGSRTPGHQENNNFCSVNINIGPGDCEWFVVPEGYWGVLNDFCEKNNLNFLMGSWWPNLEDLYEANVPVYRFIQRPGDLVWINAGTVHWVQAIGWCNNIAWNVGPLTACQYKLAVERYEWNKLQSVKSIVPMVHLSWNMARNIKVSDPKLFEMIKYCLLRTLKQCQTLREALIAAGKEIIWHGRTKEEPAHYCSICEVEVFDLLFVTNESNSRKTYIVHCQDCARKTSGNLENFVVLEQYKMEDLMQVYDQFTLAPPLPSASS", "settings": "read-out: IC50 KDM6A; [2OG] […]; ref SI 8 (main 64); cited from earlier work"}, "FTO": {"test_system": "FTO", "settings": "NOMO-1, U937, MA9.3ITD; dot blot and LC-MS/MS; ref SI 12; cited from earlier work"}, "PHD3": {"biological_target": "PHD3", "settings": "ref SI 6 (main 76); cited from earlier work"}, "KDM6B [2]": {"biological_target": "T2, KDM6B (Homo sapiens, UniProt O15054)", "T2 sequence (O15054 whole entry)": "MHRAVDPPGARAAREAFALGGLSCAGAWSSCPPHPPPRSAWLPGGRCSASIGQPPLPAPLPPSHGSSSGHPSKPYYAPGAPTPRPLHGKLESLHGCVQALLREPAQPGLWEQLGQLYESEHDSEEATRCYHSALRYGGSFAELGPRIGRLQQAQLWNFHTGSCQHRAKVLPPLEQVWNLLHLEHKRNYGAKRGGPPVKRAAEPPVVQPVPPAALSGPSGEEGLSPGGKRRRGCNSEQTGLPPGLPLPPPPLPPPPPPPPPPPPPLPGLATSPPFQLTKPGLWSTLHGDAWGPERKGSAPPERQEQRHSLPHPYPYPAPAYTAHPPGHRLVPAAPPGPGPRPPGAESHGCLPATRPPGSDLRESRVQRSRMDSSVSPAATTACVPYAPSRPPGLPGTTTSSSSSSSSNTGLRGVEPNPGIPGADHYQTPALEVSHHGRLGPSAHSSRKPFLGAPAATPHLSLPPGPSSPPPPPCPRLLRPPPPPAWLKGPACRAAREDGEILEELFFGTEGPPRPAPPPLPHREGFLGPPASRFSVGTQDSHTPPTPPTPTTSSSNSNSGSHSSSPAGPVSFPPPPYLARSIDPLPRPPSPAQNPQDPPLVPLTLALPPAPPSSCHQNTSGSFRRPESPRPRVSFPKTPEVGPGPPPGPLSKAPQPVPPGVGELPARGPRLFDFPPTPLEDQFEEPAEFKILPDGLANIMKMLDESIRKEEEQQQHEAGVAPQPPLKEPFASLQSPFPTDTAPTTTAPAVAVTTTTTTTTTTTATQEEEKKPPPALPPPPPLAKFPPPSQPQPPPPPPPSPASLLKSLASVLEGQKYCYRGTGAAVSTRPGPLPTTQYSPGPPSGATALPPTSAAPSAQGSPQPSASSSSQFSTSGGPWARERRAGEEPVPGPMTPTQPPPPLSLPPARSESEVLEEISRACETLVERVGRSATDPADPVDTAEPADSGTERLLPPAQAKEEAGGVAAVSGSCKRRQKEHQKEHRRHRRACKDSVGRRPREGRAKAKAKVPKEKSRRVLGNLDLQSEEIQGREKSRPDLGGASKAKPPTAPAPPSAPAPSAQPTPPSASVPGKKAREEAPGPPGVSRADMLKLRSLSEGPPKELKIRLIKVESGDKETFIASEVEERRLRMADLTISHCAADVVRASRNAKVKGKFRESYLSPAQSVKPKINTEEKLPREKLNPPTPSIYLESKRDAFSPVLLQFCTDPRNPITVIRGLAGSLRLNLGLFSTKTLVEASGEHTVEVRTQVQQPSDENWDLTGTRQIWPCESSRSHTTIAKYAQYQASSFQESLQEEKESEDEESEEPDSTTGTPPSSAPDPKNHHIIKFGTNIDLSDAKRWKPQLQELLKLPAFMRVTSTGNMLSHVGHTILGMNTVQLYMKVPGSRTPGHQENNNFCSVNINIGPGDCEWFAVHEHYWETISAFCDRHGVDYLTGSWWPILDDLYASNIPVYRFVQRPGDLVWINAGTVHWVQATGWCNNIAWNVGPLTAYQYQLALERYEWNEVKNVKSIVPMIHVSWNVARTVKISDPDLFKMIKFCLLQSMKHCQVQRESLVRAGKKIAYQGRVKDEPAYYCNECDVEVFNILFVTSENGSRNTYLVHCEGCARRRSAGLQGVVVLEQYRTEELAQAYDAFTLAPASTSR", "settings": "read-out: Ki (calculated) KDM6B; Cheng-Prussoff from reported IC50; ref SI 8"}, "TET2CD": {"biological_target": "TET2CD (Homo sapiens, UniProt Q6N021)"}, "KDM4B [3]": {"biological_target": "T3, KDM4B (Homo sapiens, UniProt O94953)", "T3 sequence (O94953 1-1096)": "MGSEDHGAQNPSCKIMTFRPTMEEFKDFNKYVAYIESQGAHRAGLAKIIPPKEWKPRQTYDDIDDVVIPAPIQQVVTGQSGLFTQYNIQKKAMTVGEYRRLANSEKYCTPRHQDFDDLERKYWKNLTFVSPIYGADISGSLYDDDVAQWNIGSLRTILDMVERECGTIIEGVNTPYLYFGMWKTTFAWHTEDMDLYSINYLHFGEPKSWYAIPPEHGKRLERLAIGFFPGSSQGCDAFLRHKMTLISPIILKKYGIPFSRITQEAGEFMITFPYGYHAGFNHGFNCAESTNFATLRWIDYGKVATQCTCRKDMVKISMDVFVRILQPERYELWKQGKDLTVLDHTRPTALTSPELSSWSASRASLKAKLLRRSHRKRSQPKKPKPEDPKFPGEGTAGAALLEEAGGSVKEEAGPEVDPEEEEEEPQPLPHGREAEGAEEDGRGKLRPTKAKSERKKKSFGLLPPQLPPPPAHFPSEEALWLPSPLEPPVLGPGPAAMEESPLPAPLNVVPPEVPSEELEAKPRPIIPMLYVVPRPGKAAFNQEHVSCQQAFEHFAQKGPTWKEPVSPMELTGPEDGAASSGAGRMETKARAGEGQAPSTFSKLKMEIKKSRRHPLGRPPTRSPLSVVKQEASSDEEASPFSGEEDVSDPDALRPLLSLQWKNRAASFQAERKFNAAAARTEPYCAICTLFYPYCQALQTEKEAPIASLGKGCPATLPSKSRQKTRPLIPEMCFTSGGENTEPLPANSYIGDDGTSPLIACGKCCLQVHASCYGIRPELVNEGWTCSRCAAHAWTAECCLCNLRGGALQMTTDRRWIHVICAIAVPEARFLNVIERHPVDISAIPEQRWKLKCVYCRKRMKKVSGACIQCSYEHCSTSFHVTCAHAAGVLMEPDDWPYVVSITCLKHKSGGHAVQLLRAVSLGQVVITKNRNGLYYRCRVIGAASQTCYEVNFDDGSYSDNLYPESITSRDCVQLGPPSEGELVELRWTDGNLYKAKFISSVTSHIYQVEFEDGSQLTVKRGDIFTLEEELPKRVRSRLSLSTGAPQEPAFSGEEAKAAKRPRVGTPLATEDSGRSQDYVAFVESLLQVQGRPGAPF", "assay": "biochemical"}, "KDM6A [4]": {"biological_target": "T1, KDM6A", "settings": "read-out: Ki (calculated) KDM6A; Cheng-Prussoff from reported IC50; ref SI 8"}, "BBOX1": {"test_system": "BBOX1", "settings": "read-out: IC50 BBOX1; [2OG] 40 µM, enzyme 25 nM; ref SI 4 (main 75); cited from earlier work"}, "KDM5B [5]": {"test_system": "KDM5B", "settings": "read-out: IC50 KDM5B (14CO2 radioactive); [2OG] 40 µM; ref SI 8 (main 64); cited from earlier work"}, "KDM5B [6]": {"test_system": "KDM5B", "settings": "cited from earlier work"}, "KDM4B [7]": {"biological_target": "T3, KDM4B", "settings": "read-out: IC50 KDM4B; [2OG] 20 µM; ref SI 8 (main 64); cited from earlier work"}, "KDM2A": {"biological_target": "T4, KDM2A (Homo sapiens, UniProt Q9Y2K7)", "T4 sequence (Q9Y2K7 1-1162)": "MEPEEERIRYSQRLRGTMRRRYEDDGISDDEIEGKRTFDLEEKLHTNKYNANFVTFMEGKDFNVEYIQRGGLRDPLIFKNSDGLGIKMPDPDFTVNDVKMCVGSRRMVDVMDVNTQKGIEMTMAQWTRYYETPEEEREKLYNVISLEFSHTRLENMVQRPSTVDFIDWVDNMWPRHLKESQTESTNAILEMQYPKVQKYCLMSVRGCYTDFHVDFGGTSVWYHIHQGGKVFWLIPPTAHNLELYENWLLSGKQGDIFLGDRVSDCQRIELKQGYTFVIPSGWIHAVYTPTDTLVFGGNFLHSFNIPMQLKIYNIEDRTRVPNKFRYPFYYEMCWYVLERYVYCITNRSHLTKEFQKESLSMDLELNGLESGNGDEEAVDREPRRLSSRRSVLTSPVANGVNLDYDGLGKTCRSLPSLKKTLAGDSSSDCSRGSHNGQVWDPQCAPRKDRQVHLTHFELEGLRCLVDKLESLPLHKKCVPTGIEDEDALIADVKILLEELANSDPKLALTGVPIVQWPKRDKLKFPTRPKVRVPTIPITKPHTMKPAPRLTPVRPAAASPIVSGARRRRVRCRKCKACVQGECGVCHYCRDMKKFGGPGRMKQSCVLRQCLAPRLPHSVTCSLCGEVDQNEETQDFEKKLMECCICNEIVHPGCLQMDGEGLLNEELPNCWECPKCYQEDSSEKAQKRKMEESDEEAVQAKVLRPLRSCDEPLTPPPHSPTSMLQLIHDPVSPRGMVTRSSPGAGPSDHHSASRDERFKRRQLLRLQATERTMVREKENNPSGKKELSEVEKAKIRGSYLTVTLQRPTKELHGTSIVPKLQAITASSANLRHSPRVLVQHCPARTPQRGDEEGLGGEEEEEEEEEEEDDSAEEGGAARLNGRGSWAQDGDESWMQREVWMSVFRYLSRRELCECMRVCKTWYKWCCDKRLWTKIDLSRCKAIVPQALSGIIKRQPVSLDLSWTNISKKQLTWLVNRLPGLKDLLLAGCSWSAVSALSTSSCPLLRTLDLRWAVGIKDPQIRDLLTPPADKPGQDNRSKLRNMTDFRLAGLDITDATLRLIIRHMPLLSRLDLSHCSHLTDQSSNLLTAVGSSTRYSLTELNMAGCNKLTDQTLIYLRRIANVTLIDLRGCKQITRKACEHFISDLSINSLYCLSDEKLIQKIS", "settings": "read-out: Ki (calculated) KDM2A; Cheng-Prussoff from reported IC50; ref 75 (SI ref 4)"}, "PHD1": {"biological_target": "PHD1", "settings": "ref SI 6 (main 76); cited from earlier work"}, "KDM6B [8]": {"biological_target": "T2, KDM6B", "settings": "read-out: IC50 KDM6B; [2OG] 200 µM; ref SI 8 (main 64); cited from earlier work"}, "ABH3": {"test_system": "ABH3", "settings": "U87-MG, U373-MG, HT-1080; western blot; ref SI 11; cited from earlier work"}, "FIH": {"test_system": "FIH", "settings": "read-out: IC50 FIH; [2OG] 100 µM, enzyme 1,000 nM; ref SI 4 (main 75); cited from earlier work"}, "in vitro": {"assay": "in vitro", "settings": "human, Cellular pCC50 TET1CD, nuclear count by DAPI staining, 24 h; named compound dosed"}, "TET1CD [9]": {"biological_target": "T5, TET1CD (Homo sapiens, UniProt Q8NFU7)", "T5 sequence (Q8NFU7 1418-2136)": "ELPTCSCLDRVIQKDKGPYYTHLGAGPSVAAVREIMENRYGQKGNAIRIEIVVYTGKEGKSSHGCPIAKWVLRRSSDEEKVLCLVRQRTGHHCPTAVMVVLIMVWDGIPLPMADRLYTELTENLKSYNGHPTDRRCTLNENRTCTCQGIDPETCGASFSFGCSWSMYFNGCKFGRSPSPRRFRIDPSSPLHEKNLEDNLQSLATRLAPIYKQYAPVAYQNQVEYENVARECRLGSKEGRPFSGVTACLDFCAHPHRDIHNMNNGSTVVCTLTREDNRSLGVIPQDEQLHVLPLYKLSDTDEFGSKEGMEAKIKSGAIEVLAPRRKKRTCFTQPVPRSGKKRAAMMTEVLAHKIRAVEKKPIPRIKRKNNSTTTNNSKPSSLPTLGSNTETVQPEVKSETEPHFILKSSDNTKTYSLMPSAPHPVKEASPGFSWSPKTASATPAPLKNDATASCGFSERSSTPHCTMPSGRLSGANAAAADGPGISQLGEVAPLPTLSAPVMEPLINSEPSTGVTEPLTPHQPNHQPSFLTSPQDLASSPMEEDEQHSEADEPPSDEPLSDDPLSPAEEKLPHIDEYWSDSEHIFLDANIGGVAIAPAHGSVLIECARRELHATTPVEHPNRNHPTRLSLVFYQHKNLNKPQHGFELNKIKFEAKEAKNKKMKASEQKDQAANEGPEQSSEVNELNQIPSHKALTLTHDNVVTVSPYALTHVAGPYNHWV"}, "TET1CD [10]": {"biological_target": "T5, TET1CD", "assay": "cell-based", "settings": "U2OS, read-out: % inhibition of TET1 in cells at […]"}}}
{"smiles": "O=C(O)CC[C@@H](O)C(=O)O", "note": "[R-2HG, (2R)-hydroxyglutarate]", "values": [{"measurement": "cellular inhibition PHD1–3 (in words)", "setting": "PHD1, PHD2, PHD3", "result": "Putative inhibition of PHD"}, {"measurement": "IC50", "setting": "KDM6A [1]", "result": 180, "unit": "µM"}, {"measurement": "cellular inhibition FTO (in words)", "setting": "FTO", "result": "Inhibition"}, {"measurement": "Ki", "setting": "PHD3", "result": 90, "unit": "µM"}, {"measurement": "Ki", "setting": "KDM6B [2]", "result": 89, "unit": "µM"}, {"measurement": "α-value TET2CD", "setting": "TET2CD", "result": "11 ± 13"}, {"measurement": "Ki", "setting": "KDM4B [3]", "result": 53, "unit": "µM"}, {"measurement": "Ki", "setting": "KDM6A [4]", "result": 43, "unit": "µM"}, {"measurement": "IC50", "setting": "BBOX1", "result": 13.2, "unit": "mM"}, {"measurement": "IC50", "setting": "KDM5B [5]", "result": "[…]"}, {"measurement": "cellular inhibition KDM5B at 2.0 mM (in words)", "setting": "KDM5B [6]", "result": "No inhibition"}, {"measurement": "IC50", "setting": "KDM4B [7]", "result": 150, "unit": "µM"}, {"measurement": "Ki", "setting": "KDM2A", "result": 74, "unit": "µM"}, {"measurement": "Ki", "setting": "PHD1", "result": 1.15, "unit": "mM"}, {"measurement": "IC50", "setting": "KDM6B [8]", "result": 350, "unit": "µM"}, {"measurement": "cellular inhibition ABH3 (in words)", "setting": "ABH3", "result": "Inhibition"}]}
{"smiles": "O=C(O)CC[C@H](O)C(=O)O", "note": "[S-2HG, S-2-hydroxyglutarate]", "values": [{"measurement": "IC50", "setting": "KDM6A [1]", "result": 180, "unit": "µM"}, {"measurement": "Ki", "setting": "KDM6B [2]", "result": 191, "unit": "µM"}, {"measurement": "Ki", "setting": "KDM4B [3]", "result": 158, "unit": "µM"}, {"measurement": "Ki", "setting": "KDM6A [4]", "result": 43, "unit": "µM"}, {"measurement": "IC50", "setting": "BBOX1", "result": 0.142, "unit": "mM"}, {"measurement": "cellular inhibition KDM5B at 1.0 mM (in words)", "setting": "KDM5B [6]; U2OS, 1.0 mM, immunofluorescence, ref SI 10", "result": "No inhibition"}, {"measurement": "IC50", "setting": "KDM4B [7]", "result": 450, "unit": "µM"}, {"measurement": "IC50", "setting": "KDM6B [8]", "result": 750, "unit": "µM"}, {"measurement": "IC50", "setting": "FIH", "result": 189, "unit": "µM"}]}
{"smiles": "CCCCCCCCOC(=O)[C@H](O)CCC(=O)O", "note": "[octyl-(R)-2HG, R-Octyl-2-hydroxyglutarate]", "values": [{"measurement": "CC50 at 24 h", "setting": "in vitro", "result": "> 2", "unit": "mM"}, {"measurement": "EC50", "setting": "TET1CD [9]", "result": "~1.5", "unit": "mM"}, {"measurement": "Cellular pEC50 TET1CD", "setting": "TET1CD [9]; U2OS, 24 h with Dox induction, 5hmC IF, named compound dosed, replicates in parentheses", "result": "2.83 ± 0.09 (3)"}, {"measurement": "inhibition at 1500 µM", "setting": "TET1CD [10]", "result": "~50", "unit": "%"}]}
